From US5118681A (priority 1989, dated 1992)
In brackets after ≈: the same amount, converted by molar mass.

Legend:
S.a = test: Minimum Inhibitory Concentration Test, alternate (Table 4), S.a; type: cell-based, Staphylococcus aureus; details: Staphylococcus aureus, TSB, 72 hours
Protocol: (§1) A 125 μl aliquot of 10,000 ppm test compound in acetone was added to 4.88 ml of TSB to provide a 250 ppm solution. From this solution, 100 μL was transferred to the first row of two microtiter plate columns. Both replicates and five additional compounds were all serially diluted 1:1 to a final concentration of 0.8 ppm in TSB.
(§2) Inoculation was accomplished by diluting a 24 hr Ps fl culture, four mls per 36 mls of phosphate buffer solution. A Dynatech autoinoculator was used to transfer 1.5 μl of this cell suspension to the microtiter plates. The plates were incubated at 30° C. for 3 days before the lowest concentration at which no growth occurs was recorded in the database. The SOK data and MIC test data on Ps.fl, Ps.ae, E.c, and S.a. bacteria and Candida albicans (C.alb), A.n and A.p fungi are listed in Table 4.

E.c = test: Minimum Inhibitory Concentration Test, alternate (Table 4), E.c; type: cell-based, Escherichia coli; details: Escherichia coli, TSB, 72 hours
Protocol: as §1, §2

Pseudomonas fluorescens = test: Minimum Inhibitory Concentration Test, alternate (Table 4), Ps.fl; type: cell-based; details: Pseudomonas fluorescens, TSB, 72 hours, 30° C
In short: (§3)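 Compound in acetone was diluted into TSB and serially diluted 1:1 from 250 ppm down to 0.8 ppm, in duplicate. Plates were inoculated with diluted 24 h culture and incubated 3 days at 30° C; MIC recorded as lowest concentration with no growth.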

[1] = system: Puccinia graminis (f. sp. tritici Race 15B-2); test: whole plant or invertebrate; type: in vivo; details: 336 h, read-out: % control WSR
A.n = test: Minimum Inhibitory Concentration Test, alternate (Table 4), A.n; type: cell-based, Aspergillus niger; details: Aspergillus niger, TSB, 72 hours
In short: as §3

[2] = system: Erysiphe graminis (f. sp. tritici); test: whole plant or invertebrate; type: in vivo; details: Blumeria graminis; read-out: % control WPM
Candida albicans (C.alb) = test: Minimum Inhibitory Concentration Test, alternate (Table 4), C.alb; type: cell-based; details: Candida albicans, TSB, 72 hours
Protocol: as §1, §2

A.p = test: Minimum Inhibitory Concentration Test, alternate (Table 4), A.p; type: cell-based; details: Aureobasidium pullulans, TSB, 72 hours
Protocol: as §1, §2

Ps.ae = test: Minimum Inhibitory Concentration Test, alternate (Table 4), Ps.ae; type: cell-based, Pseudomonas aerugenosa; details: Pseudomonas, TSB, 72 hours
[3] = system: Pseudoperonospora cubensis; test: whole plant or invertebrate; type: in vivo; details: Pseudoperonospora cubensis, in Cucumis sativus, 168 h; read-out: % control CDM
[4] = system: Pellicularia filamentosa (f. sp. sasiki); test: whole plant or invertebrate; type: in vivo; details: 120 h; read-out: % control RSB
Phytophthora infestans = test: whole plant or invertebrate; type: in vivo; details: Phytophthora infestans, in Solanum lycopersicum, 96 h, read-out: % control TLB
Piricularia oryzae = test: whole plant or invertebrate; type: in vivo; details: Pyricularia oryzae, read-out: % control RB
[5] = system: Puccinia recondita (f. sp. tritici Races PKB and PLD); test: whole plant or invertebrate; type: in vivo; details: Puccinia recondita, 240 h; read-out: % control WLR

| Compound | MIC (S.a) | MIC (E.c) | MIC (Pseudomonas fluorescens) | MIC (A.n) | MIC (Candida albicans (C.alb)) | MIC (A.p) | MIC (Ps.ae) | pest or weed control at 100 ppm (Piricularia oryzae) | pest or weed control at 100 ppm [5] | pest or weed control at 100 ppm [2] | pest or weed control at 100 ppm [3] | pest or weed control at 100 ppm [4] | pest or weed control at 100 ppm (Phytophthora infestans) | further results |
| --- | --- | --- | --- | --- | --- | --- | --- | --- | --- | --- | --- | --- | --- | --- |
| CCCCCCNC(=O)/C(Cl)=C(/Cl)SC(C(C)=O)C(C)=O [Example 7, N-n-hexyl-2,3-dichloro-cis-3-[3-(2,4-pentanedionyl)thio]acrylamide] | 125 µg/mL (≈ 353 µM) | 125 µg/mL (≈ 353 µM) | 250 to 500 µg/mL (≈ 706 to 1410 µM) | 8 to 63 µg/mL (≈ 22.6 to 178 µM) | 31 µg/mL (≈ 87.5 µM) | 8 µg/mL (≈ 22.6 µM) | 500 µg/mL (≈ 1410 µM) | – | – | – | – | – | – | pest or weed control at 300 ppm [1]: 60%; pest or weed control at 300 ppm [2]: 0%; pest or weed control at 300 ppm [3]: 95%; pest or weed control at 300 ppm [4]: 0%; pest or weed control at 300 ppm (Phytophthora infestans): 20% |
| CCCCCCCCNC(=O)/C=C\SC(C(=O)CC)C(=O)CC [Example 8, N-n-octyl-cis-3-[4-(3,5-heptanedionyl)thio]acrylamide] | – | – | > 500 µg/mL | > 500 µg/mL | – | – | – | – | – | – | – | – | – | pest or weed control at 200 ppm (Piricularia oryzae): 95%; pest or weed control at 200 ppm [1]: 60%; pest or weed control at 200 ppm [2]: 0%; pest or weed control at 200 ppm [3]: 95%; pest or weed control at 200 ppm [4]: 0%; pest or weed control at 200 ppm (Phytophthora infestans): 92% |
| CCCCCCCCNC(=O)/C=C\SC1C(=O)CC(C)(C)CC1=O [Example 9, N-n-octyl-cis-3-[2-(5,5-dimethyl-1,3-cyclohexanedionyl)thio]acrylamide] | – | – | > 500 µg/mL | > 500 µg/mL | – | – | – | – | – | – | – | – | – | pest or weed control at 200 ppm (Piricularia oryzae): 50%; pest or weed control at 200 ppm [1]: 60%; pest or weed control at 200 ppm [2]: 0%; pest or weed control at 200 ppm [3]: 99%; pest or weed control at 200 ppm [4]: 0%; pest or weed control at 200 ppm (Phytophthora infestans): 70% |
| CCCCCCCCNC(=O)/C=C\SC(C(C)=O)C(=O)CC (stereo not drawn) [Example 10, N-n-octyl-cis-3-[3-(2,4-hexanedionyl)thio]acrylamide] | – | – | > 500 µg/mL | > 500 µg/mL | – | – | – | – | – | – | – | – | – | pest or weed control at 200 ppm (Piricularia oryzae): 95%; pest or weed control at 200 ppm [1]: 80%; pest or weed control at 200 ppm [2]: 30%; pest or weed control at 200 ppm [3]: 100%; pest or weed control at 200 ppm [4]: 0%; pest or weed control at 200 ppm (Phytophthora infestans): 98% |
| C=CCNC(=O)C(S/C=C\C(=O)NCCCCCCCC)C(=O)OCC (stereo not drawn) [Example 37, N-n-octyl-cis-3-{2-[ethyl-N-(2-propenyl)malonamido]thio}acrylamide] | 31 µg/mL (≈ 80.6 µM) | > 250 µg/mL | 500 µg/mL (≈ 1300 µM) | 4 to 8 µg/mL (≈ 10.4 to 20.8 µM) | 8 µg/mL (≈ 20.8 µM) | < 2 µg/mL | > 250 µg/mL | 95% | 75% | 50% | 100% | 0% | 95% | – |
| CCCCCCCCNC(=O)/C=C\SC(C(=O)Nc1ccc(Cl)cc1Cl)C(=O)OCC (stereo not drawn) [Example 41, N-n-octyl-cis-3-{2-[ethyl-N-(2,4-dichlorophenyl)malonamido]thio}acrylamide] | > 500 µg/mL | > 500 µg/mL | > 500 µg/mL | 8 to 31 µg/mL (≈ 16.3 to 63.3 µM) | 63 µg/mL (≈ 129 µM) | 8 µg/mL (≈ 16.3 µM) | > 500 µg/mL | 99% | 0% | 50% | 100% | 0% | 87% | – |
| CCCCCCCCNC(=O)/C=C\SC(C(C)=O)C(=O)Nc1ccc(OC)cc1 (stereo not drawn) [Example 47, N-n-octyl-cis-3-{2-[N-(4-methoxyphenyl)acetoacetamido]thio}acrylamide] | 31 µg/mL (≈ 73.7 µM) | > 250 µg/mL | > 250 µg/mL | 4 to 16 µg/mL (≈ 9.51 to 38 µM) | 4 µg/mL (≈ 9.51 µM) | < 2 µg/mL | > 250 µg/mL | 0% | 0% | 0% | 100% | 0% | 80% | – |
| CCCCCCCCNC(=O)/C=C\SC(C(=O)Nc1ccc(Cl)c([N+](=O)[O-])c1)C(=O)OCC (stereo not drawn) [Example 48, N-n-octyl-cis-3-{2-[ethyl-N-(3-nitro-4-chlorophenyl)malonamido]thio}acrylamide] | > 250 µg/mL | > 250 µg/mL | > 250 µg/mL | 4 to 31 µg/mL (≈ 8 to 62 µM) | 31 µg/mL (≈ 62 µM) | < 2 µg/mL | > 250 µg/mL | 0% | 50% | 0% | 99% | 0% | 99% | – |
| CCCCCCCCNC(=O)/C=C\SC(C(=O)NCCCN1CCOCC1)C(=O)OCC (stereo not drawn) [Example 51, N-n-octyl-cis-3-{2-[ethyl-N-(3-(4-morpholino)propyl)malonamido]thio}acrylamide] | 31 µg/mL (≈ 65.7 µM) | > 250 µg/mL | > 250 µg/mL | < 2 µg/mL | < 2 µg/mL | < 2 µg/mL | > 250 µg/mL | 0% | 0% | 0% | 99% | 0% | 0% | – |
| CCCCCCCCNC(=O)/C=C\SC(C(=O)Nc1ccccc1OC)C(=O)OCC (stereo not drawn) [Example 53, N-n-octyl-cis-3-{2-[ethyl-N-(2-methoxyphenyl)malonamido]thio}acrylamide] | – | – | > 500 µg/mL | 500 µg/mL (≈ 1110 µM) | – | – | – | 90% | 0% | 0% | 100% | 0% | 97% | pest or weed control at 100 ppm [1]: 0% |
| CCCCCCCCNC(=O)/C=C\SC(C(=O)Nc1cccc(C)c1)C(=O)OCC (stereo not drawn) [Example 54, N-n-octyl-cis-3-{2-[ethyl-N-(3-methylphenyl)malonamido]thio}acrylamide] | – | – | > 500 µg/mL | > 500 µg/mL | – | – | – | 87% | 0% | 0% | 97% | 0% | 80% | pest or weed control at 100 ppm [1]: 0% |
| CCCCCCCCNC(=O)/C=C\SC(C(=O)NN1CCOCC1)C(=O)OCC (stereo not drawn) [Example 63, N-n-octyl-cis-3-{2-[ethyl-N-(4-morpholino)malonamido]thio}acrylamide] | 31 µg/mL (≈ 72.2 µM) | 250 µg/mL (≈ 582 µM) | > 250 µg/mL | 2 to 16 µg/mL (≈ 4.66 to 37.2 µM) | < 2 µg/mL | < 2 µg/mL | > 250 µg/mL | 0% | 0% | 0% | 99% | 0% | 0% | – |
| CCCCCCCCNC(=O)/C=C\SC(C(=O)NCCc1ccccn1)C(=O)OCC (stereo not drawn) [Example 66, N-n-octyl-cis-3-{2-[ethyl-N-(2-(2-pyridyl)ethyl)malonamido]thio}acrylamide] | 63 µg/mL (≈ 140 µM) | > 250 µg/mL | > 250 µg/mL | < 2 µg/mL | < 2 µg/mL | < 2 µg/mL | > 250 µg/mL | 0% | 0% | 0% | 100% | 0% | 40% | – |
| CCCCCCCCNC(=O)/C=C\SC(C(=O)c1ccccc1)C(=O)c1ccccc1 [Example 67, N-n-octyl-cis-3-[2-(1,3-diphenyl-1,3-propanedionyl)thio]acrylamide] | – | – | – | – | – | – | – | 90% | 0% | 0% | – | 0% | 0% | pest or weed control at 100 ppm [1]: 0% |
| CCCCCCCCNC(=O)/C=C\SC(C(=O)c1ccccc1)C(=O)c1cccn1C (stereo not drawn) [Example 68, N-n-octyl-cis-3-{2-[1-phenyl-3-(1-methylpyrroyl-2-yl)-1,3-propanedionyl]thio}acrylamide] | – | – | > 250 µg/mL | – | – | – | – | 80% | 0% | 0% | – | 0% | 60% | pest or weed control at 100 ppm [1]: 0% |
